The values below are quoted from earlier work in patent US20140328949A1, “ELECTROCHEMICALLY GENERATED ANTIMICROBIAL SODIUM HYDROXIDE SOLUTION” (priority 2013, published 2014).

For this data set, the system named is hairy foot warts. To be noted: for efficacy of footbath treatment against hairy foot warts: footbaths, formalin 5%, zinc sulfate 3× footbaths, spread and mild lesions.

As to `O=S(=O)([O-])[O-].[Zn+2]` [Zinc sulfate], the “efficacy of footbath treatment against hairy foot warts” value (“efficacy of footbath treatment” for short) was “effective at controlling the spread of hairy foot warts and treating mild lesions”. Moreover, where the note is “3× footbaths, 1990 study”, the “efficacy against more serious hairy foot wart lesions” value is recorded as “ineffective”.
Take `O=S(=O)([O-])[O-].[Cu+2]` [copper sulfate, Copper sulfate]: the “efficacy of footbath treatment” value is on record as “not an effective treatment”.
Consider `C=O` [formalin], for which the “efficacy of footbath treatment” value is “effective in controlling hairy foot wart outbreaks”.
